These results are taken from US20010034352A1, “Piperidine-4 sulphonamide compounds” (priority 2000, published 2001).

Format in all cases: cell-based
For assay [1], the system named is thoracic aorta rings of a Wistar rat. Description: Vascular protective effects with respect to endothelial dysfunction induced by an inhibitor of NOS (LNA), ACh relaxation of aortic rings. As to conditions: compound at 3×10^−9 M, LNA 3.10^−7 M, difference between percentages of maximum ACh relaxation in presence or absence of product. The text has this: Under standard in vitro conditions, relaxation of aortic rings caused by acetylcholine (ACh), which relaxation is totally dependent upon the presence of endothelium, reflects the production of NO (stimulated by ACh), which by diffusing to smooth muscle cells brings about arterial relaxation (Nature, 1980, 288, 373).
the first model consists of inducing inhibition of the relaxation due to ACh by blocking the enzymatic activity (endothelial NOS) responsible for the production of NO.
Vascular Protective Effects with Respect to Endothelial Dysfunction Induced by an Inhibitor of NOS
The thoracic aorta of a Wistar rat (325-375 g), anaesthetised by the intraperitoneal route using sodium pentobarbital (30 mg/kg), is removed and dissected into rings of 3 mm in length. […]
After a 90-minute stabilisation period, the preparations are contracted using phenylephrine (PHE 10^−6 M) and relaxed by adding 10^−5 M of acetylcholine in order to verify the 10 integrity of the endothelial layer. […] The preparations are again contracted using phenylephrine and, after 30 minutes, the relaxations due to acetylcholine (ACh—10^−8M to 10^−5 M) are assessed in the presence of indomethacin (10^−5M).
(§1) The relaxation values are expressed as a percentage relative to the maximum contraction caused by PHE. […]

In assay [2] the test system is aortic rings of New Zealand rabbits. Put plainly: Vascular protective effects with respect to endothelial dysfunction induced by a system generating O2^− (XO-Hypo), ACh relaxation of aortic rings. Particulars: compound at 3×10^−9 M; rabbit aortic rings; XO 3 mU/ml, Hypo 10^−4 M; difference between percentages of maximum ACh relaxation in presence or absence of product. As to the method: the second model consists of inducing oxidative stress in vitro using an enzymatic system that generates O2^− (xanthine oxidase —XO and hypoxanthine—Hypo).
The thoracic aorta of a Wistar rat (325-375 g), anaesthetised by the intraperitoneal route using sodium pentobarbital (30 mg/kg), is removed and dissected into rings of 3 mm in length. Each ring is suspended from an isometric tension sensor connected to a recording system and the initial tension applied is 2.5 g. The physiological solution used, which is thermostatically maintained at 37° C., and oxygenated (95% O2+5% CO2), comprises (in mM): NaCl 112.0, KCl 5.0, CaCl2 2.5, KH2PO4 1.0, MgSO4 1.2, NaHCO3 25.0, glucose 11.5, Ca-EDTA 0.016.
After a 90-minute stabilisation period, the preparations are contracted using phenylephrine (PHE 10^−6 M) and relaxed by adding 10^−5 M of acetylcholine in order to verify the 10 integrity of the endothelial layer. If that is confirmed, the preparations are rinsed and a concentration of the test product (or its solvent) is added to the medium, followed by 3.10^−7 M of N^G-nitro-L-arginine (LNA). The preparations are again contracted using phenylephrine and, after 30 minutes, the relaxations due to acetylcholine (ACh—10^−8M to 10^−5 M) are assessed in the presence of indomethacin (10^−5M).
as §1

For assay [3], the system named is cGMP in rat aortic rings. Put plainly: Assessment of aortic production of cGMP stimulated by ACh in the presence of LNA (radioimmunoassay). Particulars: compound at 3×10^−9 M, 30-minute incubation, ACh 10^−5 M 1 minute, LNA 3×10^−6 M, isobutylmethylxanthine 10^−5 M. As to the method: Involvement of the NO Route in the Vascular Protective Effects Detected: Assessment of Aortic Production of cGMP
By diffusing to the smooth muscle cells, the NO produced by the endothelial cells activates soluble guanylate cyclase, which brings about an increase in cyclic GMP which is responsible for relaxation.
The rat aortic rings are prepared as previously. Assessment is made of the effects of a 30-minute incubation of the compounds of the invention at different concentrations on the production of cGMP stimulated by ACh (10^−5 M—1 minute) in the presence of LNA (3×10^−6 M). The experiments are carried out in the presence of isobutylmethylxanthine (10^−5 M) in order to avoid degradation of the cGMP by phosphodiesterases. The rings are frozen in liquid nitrogen and maintained at −80° C. until the assay is carried out. The cGMP content is assessed by radioimmunoassay and expressed in relation to the amount of protein contained in the tissue (assay by the Bradford method).

Regarding `O=S(=O)(NC1CCN(CCc2coc3ccccc23)CC1)c1cccc2cnccc12` [Example 8, N-{1-[2-(Benzofuran-3-yl)ethyl]-4-piperidyl}-5-isoquinolinesulphonamide], in assay [1], the “inhibition of the endothelial dysfunction induced by LNA” value is 23%. Further, in assay [2], the “inhibition of the endothelial dysfunction induced by the XO-Hypo combination” value came out at 28.3%. In addition, in assay [3], the “increase of the production of cGMP stimulated by ACh in the presence of LNA” value was found to be 142.7%.
